Reference: ChEMBL document CHEMBL1144313, “Synthesis of ring-substituted 4-aminoquinolines and evaluation of their antimalarial activities” (Bioorg Med Chem Lett, 2005)

What was measured:
Type in all cases: functional, organism-based
Plasmodium falciparum [1] = assay: Effective concentration for Plasmodium falciparum 3D7
Plasmodium falciparum [2] = assay: Effective concentration for Plasmodium falciparum W2
Plasmodium falciparum [3] = assay: Effective concentration against Plasmodium falciparum W2

EC50 (Plasmodium falciparum [1]; Plasmodium falciparum) | EC50 (Plasmodium falciparum [2]) | EC50 (Plasmodium falciparum [3]) | EC50 (Plasmodium falciparum [1]) | SMILES
2 nM | 23 nM | – | – | CCN(CC)CCCNc1ccnc2cc(Cl)ccc12
33 nM | 62 nM | – | – | CCN(CC)CCCNc1ccnc2cc(C(F)(F)F)ccc12
32 nM | 270 nM | – | – | CCN(CC)CCCC(C)Nc1ccnc2cc(Cl)c(C)cc12 (stereo unspecified)
34 nM | 71 nM | – | – | CCN(CC)CCCNc1ccnc2cc(Oc3ccccc3)ccc12
82 nM | 102 nM | – | – | CCN(CC)CCCNc1ccnc2ccc(OC(F)(F)F)cc12
51 nM | 290 nM | – | – | CCN(CC)CCCC(C)Nc1ccnc2ccc(C(F)(F)F)cc12 (stereo unspecified)
90 nM | 125 nM | – | – | CCN(CC)CCCNc1ccnc2ccc(C(F)(F)F)cc12
9 nM | 50 nM | – | – | CCN(CC)CCCNc1ccnc2cc(Cl)c(C)cc12
62 nM | – | – | – | CCN(CC)CCCC(C)Nc1ccnc2ccc(OC(F)(F)F)cc12 (stereo unspecified)
5 nM | – | 8 nM | – | CCN(CC)CCCC(C)Nc1c2ccc(Cl)cc2nc2ccc(OC)cc12 (stereo in doubt; form 1) [QUINACRINE]
– | – | 32 nM | 8 nM | CCN(CC)CCCC(C)Nc1c2ccc(Cl)cc2nc2ccc(OC)cc12 (stereo in doubt; form 2) [QUINACRINE]
